Laboratory results from patent US11104647B2, “Multi-functional, stimuli-responsive materials, methods of preparation, methods of use, and uses thereof” (ADA Foundation, priority 2016, dated 2021).

How the values were obtained:
[1] = tested on: S. mutans; test: Minimum bactericidal concentration (MBC) determination by agar colony formation; assay type: cell-based, Streptococcus mutans (S. mutans, UA159); details: for MBC: Streptococcus mutans, 0.75 h, 45 min treatment
Protocol: (§1) Azo-QPS-C16 was effective on both […] bacteria. The ability of bacteria to proliferate after exposure to Azo-QPS-C16 was characterized by adding growth medium and measuring the optical density (OD) at 600 nm every 15 minutes in pH 4.1, 5.8, and 7.9 buffer. […] However, exposure at pH 7.9 required a much higher concentration (40 μg/mL) to inhibit cell growth. […] The pH dependence of bactericidal activity of Azo-QPS-C16 in terms of minimum bactericidal concentration (MBC) was evaluated by inoculating cultures onto a Lysogeny Broth (LB) agar plate after treating the cells with a twofold dilution series of Azo-QPS-C16.
(§2) Bacterial strains and growth conditions. Streptococcus mutans (S. mutans, UA159) and Escherichia coli (E. coli, K12) were purchased from ATCC (American Type Culture Collection, Manassas, Va., USA). Todd Hewitt Broth (THB), and Lysogeny Broth (LB) powder and agar were purchased from BD (Becton, Dickinson and Company, Franklin Lakes, N.J., USA). Planktonic cultures were inoculated from 25% (by volume) glycerol frozen stocks stored at −80° C. E. coli cultures were grown in LB at 37° C. in a shaker-incubator. S. mutans cultures were grown in THB at 37° C. with 5% (by volume) CO2 overnight.
(§3) Bacterial growth curves. Overnight cultures of E. coli and S. mutans were diluted directly into buffers with different pH values (100 mmol/L, pH 4.1 sodium acetate buffer, pH 5.8 sodium phosphate buffer, and pH 7.9 sodium phosphate buffer) to an optical density at 600 nm (OD600) of approximately 0.001.
(§4) In a 96-well plate, 2 μL of Azo-QPS-C16 at various concentrations in dimethyl sulfoxide (DMSO) were added to 98 μL of bacteria suspension per well for a final concentration ranging from a 2-fold dilution series between 40 to 1.25 μg/mL of Azo-QPS-C16. After 45 minutes of treatment at room temperature, 10 μL from each well was transferred to a new 96-well plate already containing 100 μL growth media per well to measure the growth curves. E. coli were cultured at 37° C., and the OD600 of each well was measured by a Tecan Spark microplate reader (Männedorf, Switzerland) every 15 minutes for up to 19 hours, with 30 seconds shaking before each measurement. S. mutans were grown at 37° C. with 5% CO2, and the OD600 of each well was measured periodically using a Molecular Devices (Sunnyvale, Calif.) SpectraMax M5 microplate reader. All experiments were conducted in triplicate and repeated at least three times on different days.
(§5) Minimum bactericidal concentration (MBC) determination. MBC values were determined by agar colony formation. […] 5 μL of the suspended cells from each well were spotted onto an agar plate and incubated for 48 hours to allow colony formation, and the presence or absence of bacterial growth was determined by naked eye. […]

[2] = tested on: E. coli; test: Bacterial growth curves (OD600) after exposure in buffer; assay type: cell-based, Escherichia coli (E. coli, K12)
Protocol: as §1
Bacterial strains and growth conditions. […]
as §4, with “After 45 minutes of treatment at room temperature, 10 μL from each well was transferred to a new 96-well plate already containing 100 μL growth media per well to measure the growth curves.” left out, “All experiments were conducted in triplicate and repeated at least three times on different days.” left out

[3] = pKa; assay type: physicochemical
[4] = Solubility in water; assay type: physicochemical
[5] = tested on: E. coli; test: Minimum bactericidal concentration (MBC) determination by agar colony formation; assay type: cell-based, Escherichia coli (E. coli, K12); details: for MBC: Escherichia coli, 0.75 h, 45 min treatment
Protocol: as §1, §2, §3, §4, §5

[6] = Dynamic light scattering (DLS) of pH-dependent assembly; assay type: physicochemical
Protocol: Particles with an average hydrodynamic diameter of 51±19 nm formed in mildly basic conditions, occurring simultaneously with the appearance of the absorbance peak at 554 nm. […] One cycle corresponds to the addition of a base and an acid. In base and acid, respectively, the absorbance at 554 nm increased and then decreased, and the particles formed and disassembled.
Dynamic light scattering (DLS) was performed using a Nicomp 380 ZLS DLS system (Particle Sizing Systems Inc., Santa Barbara, Calif.). Samples were contained in disposable glass culture tubes. Prior to sample loading, the tubes were blown with nitrogen gas and filled with 0.4 mL of a dye sample. The tubes were sealed using parafilm and then centrifuged at 14,000 rpm (19,000 g) for 5 minutes to separate larger particles. Samples were placed in the instrument and allowed to attain thermal equilibrium. An autocorrelation function was acquired for 3 minutes at 173° scattering angle. A Laplace inversion-based Nicomp routine was used to find the distribution of decay rates. The decay rates are linked to the effective sphere hydrodynamic diameters by the appropriate equations. The size distribution is reported as a discrete set of diameter bins and corresponding intensity weighted fractions as probabilities assigned to diameter bins.

## C=C(C)C(=O)Oc1ccc(/N=N/c2cc[n+](CCCCCCCCCCCCCCCC)cc2)cc1.[Br-] [Azo-QPS-C16, (E)-1-hexadecyl-4-((4-(methacryloyloxy)phenyl)diazenyl)-pyridinium bromide]
[1]; pH 4.1 buffer
  MBC: 1.25 µg/mL
[1]; pH 5.8 buffer
  MBC: 5 µg/mL
[1]; pH 7.9 buffer
  MBC: 10 µg/mL
[1]; more effective in acidic conditions
  Difference in MBC, acidic vs mildly basic conditions (pH 4.1 vs pH 7.9): 8 fold
[2]; exposure at pH 4.1, growth followed up to 19 hours
  Concentration that fully inhibited E. coli growth: 2.5 µg/mL
[2]; exposure at pH 7.9
  Concentration required to inhibit cell growth: 40 µg/mL
[3]
  pKa: 5.3
[4]
  Solubility in water: limited solubility in water
[5]; pH 4.1 buffer
  MBC: 2.5 µg/mL
[5]; pH 5.8 buffer
  MBC: 10 µg/mL
[5]; pH 7.9 buffer
  MBC: 40 µg/mL
[5]; more effective at pH 4.1
  Difference in MBC between pH 4.1 and pH 7.9: 16 fold
[6]; mildly basic conditions
  Average hydrodynamic diameter of particles: 51±19 nm
[6]; pH 4.1 buffer
  Particle formation: No particles were found
